Measured values as given in patent US20230226198A1, “Artemisinin Derivatives” (DA ZEN THERANOSTICS, INC., priority 2019, published 2023).
Like-named read-outs stand apart in the source and are kept apart here.

How the values were obtained:
[1] = system: Caki-1 cells (human clear cell renal cell carcinoma cells); experiment: MTT cell viability / IC50 assay, Caki-1; format: cell-based
Method: Cell culture: In the following examples, unless otherwise specified, all cell lines are purchased from American Type Culture Collection and cultured in American Type Culture Collection (ATCC)-recommended media, with fetal bovine serum (FBS) to a final concentration of 10% and 1× penicillin/streptomycin at 37° C. with 5% CO2 in a cell culture incubator, unless otherwise specified. Unless otherwise specified, culture is 2D. Where culture is 3D, low attachment plates are used, with the same media. C4-2B (ATCC® CRL-3315™, human prostate cancer cells of epithelial morphology) parental cell line and drug-resistant cells derived therefrom) are cultured in RPMI-1640 with 10% FBS. MDVR cells (an Enzalutamide-resistant variety of C4-2B prostate cancer cells formed as described below) are cultured as indicated for the parental C4-2B cells. Caki-1 cells (human clear cell renal cell carcinoma cells) are cultured in ATCC-formulated McCoy's 5a Medium Modified (ATCC Catalog No. 30-2007) with 10% FBS. PC3 cells (ATCC® CRL-1435™, a human prostate cancer cell line of epithelial morphology initiated from a bone metastasis of a grade IV prostatic adenocarcinoma) are cultured in F-12K with 10% FBS. 22RV1 Prostate Cancer (PC) cells (ATCC® CRL-2505™, a human prostate carcinoma cell line of epithelial morphology) are cultured in RPMI-1640 with 10% FBS. DU145 cells (ATCC® HTB-81™, a human cell line derived from a prostate-originating brain metastase, not detectably hormone sensitive, not expressing prostate antigen; forms adenocarcinoma grade II in nude mice) are cultured in ATCC-formulated Eagle's Minimum Essential Medium (EMEM, Catalog No. 30-2003). H446 cells (ATCC® HTB-171™, a human small cell carcinoma SC lung cancer (SCLC) cell line derived from a metastatic site) are cultured in RPMI-1640 with 10% FBS. H358 cells (ATCC® CRL-5807™, a human non-small cell lung cancer (NSCLC) cell line that expresses protein and RNA of SP-A, the major lung surfactant associated protein, and produces tumors in athymic nude mice) are cultured in RPMI-1640 Medium with 10% FBS. BxPC3 cells (ATCC® CRL-1687™, an adenocarcinoma-derived pancreatic cancer cell line that expresses pancreas cancer specific antigen and carcinoembryonic antigen and forms tumors in nude mice) are cultured in RPMI-1640 with 10% FBS.
Example 1: A cell assay is performed exposing cells cultured as described above to various drugs indicated below for 24 hours unless otherwise indicated. Each of the cell lines is treated either with a THAD (e.g. DZ-DHA-ether, MI-148-bis-DHA), or for comparison, with the DHA mono-ester “DZ-DHA”; alternatively/additionally, DZ1 and/or unconjugated DHA may serve as comparants. For each cell line, the IC50 is determined for each drug in concentrations from 0 to 100 μM. […] In the controls (not shown in the figures), the cells are exposed to DMSO (vehicle) for a final concentration that equals the highest concentration of the drug tested, to a maximum concentration less than 0.1% v/v. 4 hours before culture end/SDS addition, 10 μL MTT (3-(4,5-Dimethyl-2-thiazolyl)-2,5-diphenyl-2H-tetrazolium bromide, Sigma-Aldrich) is added to wells containing the cells. At the end of culture, 100 μl 10% SDS is added and then the plate containing the cells is placed in a 37° C. cell culture incubator for 8 hours. The absorbance density of the supernatant is read on a 96-well microplate reader at wavelength 595 nm. The results of Caki-1 and MDRV are indicated in the table below along with preliminary results for further cancer cell lines (including, e.g., C4-2B, Abi-R, PC3, 22Rv1, DU145, H358, H446, BxPC3), and the corresponding curves are shown in FIG. 2A (Caki-1) and FIG. 2B (MDVR).

[2] = system: C4-2B MDVR cells; experiment: Seahorse XF mitochondrial function (OCR/ECAR); format: cell-based, human; conditions: 5 uM
Method: Example 5 C: To determine mitochondrial function of cancer cells (here C4-2B MDVR), the cells are treated with vehicle, DZ (5 uM), DHA (5 uM), and DZ-003 (5 uM) over 12 hours, and the oxygen consumption rate (OCR) from respiration and extracellular acidification rate (ECAR) from glycolysis of the live cells is determined in a metabolic chamber in a 24-well plate format using a Seahorse XF analyzer (Seahorse XFe24, Agilent, Calif.). Reagents (drugs/controls) are added to the wells just before start of the recording at time 0, and the effect of the drugs on the basal mitochondrial function is recorded by the analyzer for about 12 hours (720 minutes). All reagents used are Agilent reagents. Cells are seeded and cultured in Seahorse XF RPMI Medium, pH 7.4. The seeding rate is 8×10^5 for the cells to reach about 90% confluency within about 24 hours when the analysis is started. The protocol is essentially performed as per the standard protocol of the manufacturer, removing the medium, washing the cells once with XF Real-Time ATP Rate Assay Medium, then starting the measurement as per the instrument's pre-programming and subsequent real-time measurements of OCAR/ECAR. Preliminary experiments indicate that the THAD as described herein may have an increased effect compared to DZ3a.

[3] = system: MDVR cells; experiment: C11-BODIPY (lipid peroxidation) and MitoSox (mitochondrial ROS) flow cytometry; format: cell-based, human; conditions: 8 h
Method: Example 5F: Cancer cells (here MDVR) are treated with DZ1, DHA and DZ-003 for 8 h, followed by C11-BODIPY staining for 30 min at 37° C. (lipid peroxidation) or MitoSox staining for 10 min at 37° C. […] Flow cytometry analysis is performed as described in example 5E above. […] Preliminary experiments indicate that the THAD as described herein may provide a similar or increased effects.

C[C@@H]1CC[C@H]2[C@@H](C)C(OC(=O)CCCCCN3/C(=C/C=C4\CCCC(/C=C/C5=[N+](CCCCS(=O)(=O)[O-])c6ccccc6C5(C)C)=C4Cl)C(C)(C)c4ccccc43)O[C@@H]3OC4(C)CC[C@@H]1[C@]32OO4 (stereo in doubt) [DZ3a]
IC50 ([1]; Caki-1, 24 hours, relative IC50, read-out: IC50): 12.3 µM
IC50 ([1]; Caki-1, unit inferred, read-out: IC50 (FIG. 2A description)): > 12 µM
time at which lowering of OCR starts [2]: ≤ 250 min
time until which OCR continues to lower before sustained lowered OCR [2]: about 500 minutes
lowering of OCR (in words) ([2]; over 12 hours): can greatly lower the mitochondrial oxygen consumption rate
mitochondrial oxygen consumption rate (OCR) after treatment ([2]; over 12 hours, from about 700-800 pmol/min): less than 300 pmol/min
lipid peroxidation (C11-BODIPY fluorescence) [3]: induces lipid peroxidation
